In patent publication EP0590721A1, “Method for expressing receptors of the human nervous system in the yeast Schizosaccharomyces pombe” (ENICHEM S.p.A., priority 1992, dated 1994):

Target: chimeric protein STE2-β₂AR (Homo sapiens, UniProt P07550)
Settings: (125I)-CYP 20 pM, competitor 10⁻⁹ M to 10⁻³ M, 37°C one hour, TNE

SMILES: CNC[C@H](O)c1ccc(O)c(O)c1 [epinephrine]
- inhibition efficiency order: alprenolol > isoproterenol > epinephrine
